In patent US20240208992A1, “MACROCYCLES AS CFTR MODULATORS” (Idorsia Pharmaceuticals Ltd, priority 2021, published 2024):
pEC50: −log10 of the molar value.

Biological target: human F508del-CFTR (Homo sapiens, UniProt P13569, DEL508-508)
Test: F508del-CFTR cell surface expression (corrector activity), DiscoveRx ß-galactosidase complementation chemiluminescence assay in recombinant U2OS cell line;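 also: U2OS cells co-expressing ProLink-tagged F508del-CFTR and a membrane-anchored enzyme acceptor, where more surface CFTR restores β-galactosidase activity measured by chemiluminescence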
Conditions: U2OS cell line, 16h compound incubation; for pEC50: EC50, F508del-CFTR cell surface expression, geomean values; for Emax: U2OS, in relation to the Emax of the corrector lumacaftor (=100%), arithmetic mean values

human F508del-CFTR, sequence (P13569 with tags, fused parts or gaps DEL508-508): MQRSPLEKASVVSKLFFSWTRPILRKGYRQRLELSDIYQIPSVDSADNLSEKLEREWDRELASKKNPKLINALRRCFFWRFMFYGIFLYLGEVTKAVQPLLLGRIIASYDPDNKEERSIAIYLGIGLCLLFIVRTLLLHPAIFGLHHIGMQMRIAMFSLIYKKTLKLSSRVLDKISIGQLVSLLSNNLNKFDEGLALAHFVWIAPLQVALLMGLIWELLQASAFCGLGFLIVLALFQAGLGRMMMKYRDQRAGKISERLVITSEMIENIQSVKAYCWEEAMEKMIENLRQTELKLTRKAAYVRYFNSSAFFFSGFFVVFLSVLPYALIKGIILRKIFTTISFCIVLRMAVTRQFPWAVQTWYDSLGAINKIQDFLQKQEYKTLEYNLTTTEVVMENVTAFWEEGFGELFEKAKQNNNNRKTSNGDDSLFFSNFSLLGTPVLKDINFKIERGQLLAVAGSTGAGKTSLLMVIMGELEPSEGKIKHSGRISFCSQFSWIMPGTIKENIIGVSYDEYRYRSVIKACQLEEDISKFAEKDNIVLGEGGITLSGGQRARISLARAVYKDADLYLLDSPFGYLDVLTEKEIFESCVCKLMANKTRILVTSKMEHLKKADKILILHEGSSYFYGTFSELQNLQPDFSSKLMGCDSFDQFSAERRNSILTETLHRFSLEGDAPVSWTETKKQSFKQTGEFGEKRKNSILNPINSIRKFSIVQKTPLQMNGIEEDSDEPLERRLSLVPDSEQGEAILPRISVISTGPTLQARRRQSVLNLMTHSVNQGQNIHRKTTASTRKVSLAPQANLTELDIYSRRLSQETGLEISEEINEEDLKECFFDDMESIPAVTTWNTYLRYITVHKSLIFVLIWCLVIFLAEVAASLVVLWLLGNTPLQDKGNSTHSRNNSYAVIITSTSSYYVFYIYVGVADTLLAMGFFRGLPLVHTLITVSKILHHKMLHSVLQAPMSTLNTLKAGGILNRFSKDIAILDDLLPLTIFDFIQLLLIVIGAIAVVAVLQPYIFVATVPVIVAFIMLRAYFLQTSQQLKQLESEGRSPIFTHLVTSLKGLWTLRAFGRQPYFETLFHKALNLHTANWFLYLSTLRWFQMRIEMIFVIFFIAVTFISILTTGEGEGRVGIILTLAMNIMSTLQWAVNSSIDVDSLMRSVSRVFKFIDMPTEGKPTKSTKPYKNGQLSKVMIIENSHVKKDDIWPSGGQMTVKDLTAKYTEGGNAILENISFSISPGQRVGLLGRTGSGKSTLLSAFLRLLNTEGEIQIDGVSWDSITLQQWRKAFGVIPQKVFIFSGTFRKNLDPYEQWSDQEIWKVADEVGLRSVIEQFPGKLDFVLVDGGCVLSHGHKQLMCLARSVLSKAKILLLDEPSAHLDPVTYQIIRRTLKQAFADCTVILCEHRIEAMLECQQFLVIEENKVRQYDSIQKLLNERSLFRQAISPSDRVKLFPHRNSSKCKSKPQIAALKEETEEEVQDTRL

Row | SMILES | pEC50 | Emax
1 | CC(C)C[C@H]1C(=O)N2CCOC[C@@H]2C(=O)N[C@H](Cc2ccccc2)COc2cnc3ccccc3c2C(=O)N[C@H](C(=O)NCCc2cc(C(C)(C)C)on2)CC(=O)N1C [Example 107, (9S,13S,19aR,22R)-22-benzyl-N-(2-(5-(tert-butyl)isoxazol-3-yl)ethyl)-13-isobutyl-12-methyl-7,11,14,20-tetraoxo-7,8,9,10,11,12,13,14,16,17,19,19a,20,21,22,23-hexadecahydro-[1,4]oxazino[3′,4′:6,7][1]oxa[4,7,10,14]tetraazacycloheptadecino[17,16-c]quinoline-9-carboxamide] | 6.10 | 257%
2 | CC(C)C[C@H]1C(=O)N(C)C2(CC2)C(=O)N[C@H](Cc2ccccc2)COc2cnc3ccccc3c2C(=O)N[C@H](C(=O)NCCc2ccccc2)CC(=O)N1C [Example 108, (3′S,7′S,13′R)-13′-benzyl-7′-isobutyl-6′,9′-dimethyl-1′,5′,8′,11′-tetraoxo-N-phenethyl-2′,3′,4′,5′,6′,7′,8′,9′,11′,12′,13′,14′-dodecahydro-1′H-spiro[cyclopropane-1,10′-[1]oxa[4,7,10,14]tetraazacycloheptadecino[17,16-c]quinoline]-3′-carboxamide] | 6.24 | 222%
3 | COc1cc(CCNC(=O)[C@@H]2CC(=O)N(C)[C@@H](CC(C)C)C(=O)N(C)C3(CC3)C(=O)N[C@H](Cc3ccccc3)COc3cnc4ccccc4c3C(=O)N2)cc(OC)c1 [Example 109, (3′S,7′S,13′R)-13′-benzyl-N-(3,5-dimethoxyphenethyl)-7′-isobutyl-6′,9′-dimethyl-1′,5′,8′,11′-tetraoxo-2′,3′,4′,5′,6′,7′,8′,9′,11′,12′,13′,14′-dodecahydro-1′H-spiro[cyclopropane-1,10′-[1]oxa[4,7,10,14]tetraazacycloheptadecino[17,16-c]quinoline]-3′-carboxamide] | 6.64 | 321%
4 | CC(C)C[C@H]1C(=O)N(C)C2(CC2)C(=O)N[C@H](Cc2ccccc2)COc2cnc3ccccc3c2C(=O)N[C@H](C(=O)NCCc2c(F)cccc2F)CC(=O)N1C [Example 110, (3′S,7′S,13′R)-13′-benzyl-N-(2,6-difluorophenethyl)-7′-isobutyl-6′,9′-dimethyl-1′,5′,8′,11′-tetraoxo-2′,3′,4′,5′,6′,7′,8′,9′,11′,12′,13′,14′-dodecahydro-1′H-spiro[cyclopropane-1,10′-[1]oxa[4,7,10,14]tetraazacycloheptadecino[17,16-c]quinoline]-3′-carboxamide] | 6.32 | 261%
5 | COc1ccc(CCNC(=O)[C@@H]2CC(=O)N(C)[C@@H](CC(C)C)C(=O)N(C)C3(CC3)C(=O)N[C@H](Cc3ccccc3)COc3cnc4ccccc4c3C(=O)N2)cc1 [Example 111, (3′S,7′S,13′R)-13′-benzyl-7′-isobutyl-N-(4-methoxyphenethyl)-6′,9′-dimethyl-1′,5′,8′,11′-tetraoxo-2′,3′,4′,5′,6′,7′,8′,9′,11′,12′,13′,14′-dodecahydro-1′H-spiro[cyclopropane-1,10′-[1]oxa[4,7,10,14]tetraazacycloheptadecino[17,16-c]quinoline]-3′-carboxamide] | 6.41 | 242%
6 | Cc1cccc(CCNC(=O)[C@@H]2CC(=O)N(C)[C@@H](CC(C)C)C(=O)N(C)C3(CC3)C(=O)N[C@H](Cc3ccccc3)COc3cnc4ccccc4c3C(=O)N2)c1 [Example 112, (3′S,7′S,13′R)-13′-benzyl-7′-isobutyl-6′,9′-dimethyl-N-(3-methylphenethyl)-1′,5′,8′,11′-tetraoxo-2′,3′,4′,5′,6′,7′,8′,9′,11′,12′,13′,14′-dodecahydro-1′H-spiro[cyclopropane-1,10′-[1]oxa[4,7,10,14]tetraazacycloheptadecino[17,16-c]quinoline]-3′-carboxamide] | 6.09 | 200%
7 | CC(C)C[C@H]1C(=O)N(C)C2(CC2)C(=O)N[C@H](Cc2ccccc2)COc2cnc3ccccc3c2C(=O)N[C@H](C(=O)NCCc2ccc(F)c(F)c2)CC(=O)N1C [Example 113, (3′S,7′S,13′R)-13′-benzyl-N-(3,4-difluorophenethyl)-7′-isobutyl-6′,9′-dimethyl-1′,5′,8′,11′-tetraoxo-2′,3′,4′,5′,6′,7′,8′,9′,11′,12′,13′,14′-dodecahydro-1′H-spiro[cyclopropane-1,10′-[1]oxa[4,7,10,14]tetraazacycloheptadecino[17,16-c]quinoline]-3′-carboxamide] | 6.43 | 158%
8 | CCc1nc(CCNC(=O)[C@@H]2CC(=O)N(C)[C@@H](CC(C)C)C(=O)N(C)C3(CC3)C(=O)N[C@H](Cc3ccccc3)COc3cnc4ccccc4c3C(=O)N2)no1 [Example 114, (3′S,7′S,13′R)-13′-benzyl-N-(2-(5-ethyl-1,2,4-oxadiazol-3-yl)ethyl)-7′-isobutyl-6′,9′-dimethyl-1′,5′,8′,11′-tetraoxo-2′,3′,4′,5′,6′,7′,8′,9′,11′,12′,13′,14′-dodecahydro-1′H-spiro[cyclopropane-1,10′-[1]oxa[4,7,10,14]tetraazacycloheptadecino[17,16-c]quinoline]-3′-carboxamide] | 6.03 | 220%
9 | CC(C)C[C@H]1C(=O)N(C)C2(CC2)C(=O)N[C@H](Cc2ccccc2)COc2cnc3ccccc3c2C(=O)N[C@H](C(=O)NCCc2noc(C3CC3)n2)CC(=O)N1C [Example 115, (3′S,7′S,13′R)-13′-benzyl-N-(2-(5-cyclopropyl-1,2,4-oxadiazol-3-yl)ethyl)-7′-isobutyl-6′,9′-dimethyl-1′,5′,8′,11′-tetraoxo-2′,3′,4′,5′,6′,7′,8′,9′,11′,12′,13′,14′-dodecahydro-1′H-spiro[cyclopropane-1,10′-[1]oxa[4,7,10,14]tetraazacycloheptadecino[17,16-c]quinoline]-3′-carboxamide] | 6.42 | 250%
10 | CC(C)C[C@H]1C(=O)N(C)C2(CC2)C(=O)N[C@H](Cc2ccccc2)COc2cnc3ccccc3c2C(=O)N[C@H](C(=O)NCCc2noc(C(C)(C)C)n2)CC(=O)N1C [Example 116, (3′S,7′S,13′R)-13′-benzyl-N-(2-(5-(tert-butyl)-1,2,4-oxadiazol-3-yl)ethyl)-7′-isobutyl-6′,9′-dimethyl-1′,5′,8′,11′-tetraoxo-2′,3′,4′,5′,6′,7′,8′,9′,11′,12′,13′,14′-dodecahydro-1′H-spiro[cyclopropane-1,10′-[1]oxa[4,7,10,14]tetraazacycloheptadecino[17,16-c]quinoline]-3′-carboxamide] | 6.26 | 253%
11 | Cc1cc(CCNC(=O)[C@@H]2CC(=O)N(C)[C@@H](CC(C)C)C(=O)N(C)C3(CC3)C(=O)N[C@H](Cc3ccccc3)COc3cnc4ccccc4c3C(=O)N2)no1 [Example 117, (3′S,7′S,13′R)-13′-benzyl-7′-isobutyl-6′,9′-dimethyl-N-(2-(5-methylisoxazol-3-yl)ethyl)-1′,5′,8′,11′-tetraoxo-2′,3′,4′,5′,6′,7′,8′,9′,11′,12′,13′,14′-dodecahydro-1′H-spiro[cyclopropane-1,10′-[1]oxa[4,7,10,14]tetraazacycloheptadecino[17,16-c]quinoline]-3′-carboxamide] | 6.11 | 237%
12 | CC(C)C[C@H]1C(=O)N(C)C2(CC2)C(=O)N[C@H](Cc2ccccc2)COc2cnc3ccccc3c2C(=O)N[C@H](C(=O)NCCc2cc(C3CC3)on2)CC(=O)N1C [Example 118, (3′S,7′S,13′R)-13′-benzyl-N-(2-(5-cyclopropylisoxazol-3-yl)ethyl)-7′-isobutyl-6′,9′-dimethyl-1′,5′,8′,11′-tetraoxo-2′,3′,4′,5′,6′,7′,8′,9′,11′,12′,13′,14′-dodecahydro-1′H-spiro[cyclopropane-1,10′-[1]oxa[4,7,10,14]tetraazacycloheptadecino[17,16-c]quinoline]-3′-carboxamide] | 6.48 | 265%
13 | CC(C)C[C@H]1C(=O)N(C)C2(CC2)C(=O)N[C@H](Cc2ccccc2)COc2cnc3ccccc3c2C(=O)N[C@H](C(=O)NCCc2cc(C(C)(C)C)on2)CC(=O)N1C [Example 119, (3′S,7′S,13′R)-13′-benzyl-N-(2-(5-(tert-butyl)isoxazol-3-yl)ethyl)-7′-isobutyl-6′,9′-dimethyl-1′,5′,8′,11′-tetraoxo-2′,3′,4′,5′,6′,7′,8′,9′,11′,12′,13′,14′-dodecahydro-1′H-spiro[cyclopropane-1,10′-[1]oxa[4,7,10,14]tetraazacycloheptadecino[17,16-c]quinoline]-3′-carboxamide] | 6.48 | 248%
14 | CC(C)C[C@H]1C(=O)N(C)C2(CC2)C(=O)N[C@H](Cc2ccccc2)COc2cnc3ccccc3c2C(=O)N[C@H](C(=O)NCCc2cc(F)cc(F)c2)CC(=O)N1C [Example 120, (3′S,7′S,13′R)-13′-benzyl-N-(3,5-difluorophenethyl)-7′-isobutyl-6′,9′-dimethyl-1′,5′,8′,11′-tetraoxo-2′,3′,4′,5′,6′,7′,8′,9′,11′,12′,13′,14′-dodecahydro-1′H-spiro[cyclopropane-1,10′-[1]oxa[4,7,10,14]tetraazacycloheptadecino[17,16-c]quinoline]-3′-carboxamide] | 6.48 | 212%
15 | CC(C)C[C@H]1C(=O)N(C)C2(CC2)C(=O)N[C@H](Cc2ccccc2)COc2cnc3ccccc3c2C(=O)N[C@H](C(=O)NCCc2nc(C3CC3)no2)CC(=O)N1C [Example 121, (3′S,7′S,13′R)-13′-benzyl-N-(2-(3-cyclopropyl-1,2,4-oxadiazol-5-yl)ethyl)-7′-isobutyl-6′,9′-dimethyl-1′,5′,8′,11′-tetraoxo-2′,3′,4′,5′,6′,7′,8′,9′,11′,12′,13′,14′-dodecahydro-1′H-spiro[cyclopropane-1,10′-[1]oxa[4,7,10,14]tetraazacycloheptadecino[17,16-c]quinoline]-3′-carboxamide] | 6.21 | 354%
